From ChEMBL document CHEMBL1201862, “PubChem BioAssay data set” (2004)
Calls of active or inactive are those of the source.

Columns and labels:
[1] = target: T1, Kappa-type opioid receptor (Homo sapiens, UniProt P41145); assay: SAR analysis of Antagonists of the Kappa Opioid Receptor (KOR) using an Image-Based Assay - Set 4. [Related pubchem assays (depositor defined):AID1777, AID1785]; assay type: functional
Mu-type opioid receptor = Mu-type opioid receptor (Homo sapiens, UniProt P35372); assay: SAR Analysis of Antagonists of the MOR Receptor using an Image-Based Assay - Set 3. [Related pubchem assays (depositor defined):AID1777, AID1785, AID1786, AID1966, AID2133, AID2136, AID2284, AID2285, AID2420]; assay type: functional
[2] = target: T1, Kappa-type opioid receptor; assay: SAR analysis of small molecule antagonists of the kappa opioid receptor via a luminescent beta-arrestin assay - Set 3. [Related pubchem assays (depositor defined):AID1777, AID1778, AID1785, AID1786, AID1966, AID2133, AID2136, AID2285, AID2495]; assay type: functional
[3] = target: Delta-type opioid receptor (Homo sapiens, UniProt P41143); assay: SAR Analysis of Antagonists of the DOR Receptor using an Image-Based Assay - Set 3. [Related pubchem assays (depositor defined):AID1777, AID1785]; assay type: functional;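 further: U2OS cells expressing DOR1 and beta-arrestin GFP stimulated with 100 nM SNC80; imaging of GFP-tagged beta-arrestin moving into spots after receptor activation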
Fatty acid synthase [4] = target: T2, Fatty acid synthase (Homo sapiens, UniProt P49327); assay: inhibition of human FAS-TE enzyme activity – biochemical, endpoint fluorescence intensity, uHTS hits, dose response (AID 624327); assay type: functional;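 further: fluorescence from hydrolysis of an O-methyl fluorescein acyl ester substrate by the enzyme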
[5] = target: T3, Runt-related transcription factor 1/Core-binding factor subunit beta (Homo sapiens, UniProt Q01196+Q13951); assay: disruptors of Runt domain/CBFb-SMMHC interaction – biochemical, FRET, Cerulean-Runt, Venus-CBFb-SMMHC, uHTS, […] (AID 1434); assay type: protein assay
[6] = target: T3, Runt-related transcription factor 1/Core-binding factor subunit beta; assay: Runt domain/CBFb-SMMHC interaction disruptors – biochemical, TR-FRET (AID 1438); assay type: protein assay
Fatty acid synthase [7] = target: T2, Fatty acid synthase; assay: inhibition of human FAS-TE enzyme activity – biochemical, kinetic fluorescence intensity, dose response (AID 624326); assay type: functional;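 further: rate of fluorescence rise from hydrolysis of a fluorogenic O-methyl fluorescein ester substrate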
Integrin alpha-L = Integrin alpha-L (Mus musculus, UniProt P24063); assay: modulators of CD8 T cell-vesicle binding, dose response, powder samples, mouse 2C CD8+ cells (AID 504565); assay type: functional
cells [8] = assay type: functional, cell-based
cells [9] = assay type: functional, cell-based; remark: listed apart in the source
T-cell = assay: loss of vesicle association with mouse CD8+ T cells – mouse 2C CD8+ T cells, flow cytometry, dose response (AID 485284); assay type: functional
[10] = target: T4, E3 ubiquitin-protein ligase XIAP (Homo sapiens, UniProt P98170); assay: small molecules displacing peptide from XIAP – biochemical, IAP family, fluorescence polarization (AID 1018); assay type: functional
[11] = target: T4, E3 ubiquitin-protein ligase XIAP; assay: Counter Screen using XIAP-Bir3 for Chemical Antagonists of Bir1/2 domains of IAP-family anti-apoptotic proteins. [Related pubchem assays (depositor defined):AID1018, AID1449, AID1514, AID1638, AID1749, AID1750, AID488957, AID488963]
[12] = target: Glucose-6-phosphate 1-dehydrogenase (Homo sapiens, UniProt P11413); assay: inhibition of Homo sapiens G6PD, dose series – biochemical, fluorescence, selectivity assay for P. falciparum G6PD inhibitor project, dose response (AID 504792); assay type: functional
[13] = target: T5, Voltage-gated N-type calcium channel alpha-1B subunit/Amyloid beta A4 precursor protein-binding family A member 1 (Homo sapiens, UniProt Q00975+Q02410); assay type: protein assay
[14] = target: T5, Voltage-gated N-type calcium channel alpha-1B subunit/Amyloid beta A4 precursor protein-binding family A member 1; assay type: protein assay; remark: listed apart in the source
[15] = A cytotoxicity screen of small molecule inhibitors of the PhoP region in Salmonella typhi identified in the primary screen. [Related pubchem assays: 1850, 1864, 1985 ]; assay type: functional
HEK293 [16] = assay: cells; assay type: functional, cell-based; details: Homo sapiens
HEK293 [17] = assay: cells; assay type: functional, cell-based; details: Homo sapiens; remark: listed apart in the source
[18] = target: Nucleotide-binding oligomerization domain-containing protein 2 (Homo sapiens, UniProt Q9HC29); assay: inhibition of NOD2-driven NF-kB reporter – cell-based, luminescence, uHTS, HEK293 (AID 1566); assay type: functional
HEK293 [19] = assay: NOD2 signaling inhibitors in MDP-stimulated cells, cell-based, uHTS, luminescence (AID 2001); assay type: functional; details: Homo sapiens
HEK293 [20] = assay: cells; assay type: functional, cell-based; details: Homo sapiens; remark: listed apart in the source
HEK293 [21] = assay: inhibition of NOD1-driven NF-kB reporter – cell-based, luminescence, uHTS, primary screen (AID 1578); assay type: functional; details: Homo sapiens

T2 sequence (P49327 whole entry, the tested form may be a part): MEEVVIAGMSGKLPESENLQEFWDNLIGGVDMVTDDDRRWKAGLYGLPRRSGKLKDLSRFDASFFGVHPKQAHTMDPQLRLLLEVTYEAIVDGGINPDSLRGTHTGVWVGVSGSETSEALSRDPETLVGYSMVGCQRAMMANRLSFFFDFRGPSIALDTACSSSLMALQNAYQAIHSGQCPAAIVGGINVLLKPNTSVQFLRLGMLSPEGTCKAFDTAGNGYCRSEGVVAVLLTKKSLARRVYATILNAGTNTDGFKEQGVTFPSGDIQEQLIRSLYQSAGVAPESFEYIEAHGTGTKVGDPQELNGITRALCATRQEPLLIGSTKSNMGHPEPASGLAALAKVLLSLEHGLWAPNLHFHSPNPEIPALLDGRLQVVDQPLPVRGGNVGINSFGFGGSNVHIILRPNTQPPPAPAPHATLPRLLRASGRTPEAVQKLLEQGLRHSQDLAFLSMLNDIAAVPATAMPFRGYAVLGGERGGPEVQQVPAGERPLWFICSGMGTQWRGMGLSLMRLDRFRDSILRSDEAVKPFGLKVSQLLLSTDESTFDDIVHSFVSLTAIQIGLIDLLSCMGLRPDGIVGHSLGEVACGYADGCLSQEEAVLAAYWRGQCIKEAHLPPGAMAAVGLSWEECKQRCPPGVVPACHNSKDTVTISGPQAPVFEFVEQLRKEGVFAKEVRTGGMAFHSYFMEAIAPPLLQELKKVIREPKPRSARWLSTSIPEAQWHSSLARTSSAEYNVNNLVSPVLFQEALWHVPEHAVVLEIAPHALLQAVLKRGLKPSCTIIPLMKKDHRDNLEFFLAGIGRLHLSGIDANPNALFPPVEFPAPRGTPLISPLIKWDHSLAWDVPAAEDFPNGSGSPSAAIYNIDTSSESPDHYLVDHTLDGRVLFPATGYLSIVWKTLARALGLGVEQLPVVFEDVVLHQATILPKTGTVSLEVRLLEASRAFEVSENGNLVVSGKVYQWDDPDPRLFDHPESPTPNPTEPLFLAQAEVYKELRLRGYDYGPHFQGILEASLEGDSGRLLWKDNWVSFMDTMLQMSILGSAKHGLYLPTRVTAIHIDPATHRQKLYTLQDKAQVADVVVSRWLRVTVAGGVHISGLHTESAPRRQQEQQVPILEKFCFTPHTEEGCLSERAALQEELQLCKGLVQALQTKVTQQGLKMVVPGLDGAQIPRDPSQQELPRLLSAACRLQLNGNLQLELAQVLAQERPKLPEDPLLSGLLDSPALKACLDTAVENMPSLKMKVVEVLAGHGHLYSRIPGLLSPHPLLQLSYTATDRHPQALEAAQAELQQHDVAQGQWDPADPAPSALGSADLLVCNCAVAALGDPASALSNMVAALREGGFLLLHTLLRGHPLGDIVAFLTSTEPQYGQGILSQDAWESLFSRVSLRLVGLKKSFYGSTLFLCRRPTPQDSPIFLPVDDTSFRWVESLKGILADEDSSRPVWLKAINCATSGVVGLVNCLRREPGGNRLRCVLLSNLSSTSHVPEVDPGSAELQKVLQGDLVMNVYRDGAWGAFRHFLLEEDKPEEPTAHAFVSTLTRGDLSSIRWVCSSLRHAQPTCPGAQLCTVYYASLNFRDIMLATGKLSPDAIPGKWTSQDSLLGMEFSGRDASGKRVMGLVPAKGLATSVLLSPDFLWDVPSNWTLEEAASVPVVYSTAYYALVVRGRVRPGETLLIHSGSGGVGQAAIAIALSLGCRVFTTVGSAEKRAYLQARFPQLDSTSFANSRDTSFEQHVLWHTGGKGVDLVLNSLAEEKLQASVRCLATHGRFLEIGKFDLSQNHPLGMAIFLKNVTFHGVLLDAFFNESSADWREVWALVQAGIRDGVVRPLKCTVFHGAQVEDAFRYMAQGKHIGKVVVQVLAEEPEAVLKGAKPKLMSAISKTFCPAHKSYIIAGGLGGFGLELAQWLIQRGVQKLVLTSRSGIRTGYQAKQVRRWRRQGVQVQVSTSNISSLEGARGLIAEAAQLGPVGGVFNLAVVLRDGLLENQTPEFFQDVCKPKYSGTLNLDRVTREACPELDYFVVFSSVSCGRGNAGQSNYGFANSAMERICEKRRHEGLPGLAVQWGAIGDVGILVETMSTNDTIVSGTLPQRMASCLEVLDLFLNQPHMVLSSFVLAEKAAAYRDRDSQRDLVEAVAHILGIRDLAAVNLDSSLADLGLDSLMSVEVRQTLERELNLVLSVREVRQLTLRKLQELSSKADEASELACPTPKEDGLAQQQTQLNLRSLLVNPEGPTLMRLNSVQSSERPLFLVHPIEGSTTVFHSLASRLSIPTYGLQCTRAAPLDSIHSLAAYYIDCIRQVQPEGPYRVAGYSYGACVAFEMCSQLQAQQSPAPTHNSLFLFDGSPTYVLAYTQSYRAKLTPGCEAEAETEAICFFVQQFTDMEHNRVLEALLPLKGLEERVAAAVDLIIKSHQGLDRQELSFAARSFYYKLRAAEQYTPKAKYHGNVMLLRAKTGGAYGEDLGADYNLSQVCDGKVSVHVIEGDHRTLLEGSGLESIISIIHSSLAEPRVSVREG
T3 sequence (Q01196 whole entry, the tested form may be a part): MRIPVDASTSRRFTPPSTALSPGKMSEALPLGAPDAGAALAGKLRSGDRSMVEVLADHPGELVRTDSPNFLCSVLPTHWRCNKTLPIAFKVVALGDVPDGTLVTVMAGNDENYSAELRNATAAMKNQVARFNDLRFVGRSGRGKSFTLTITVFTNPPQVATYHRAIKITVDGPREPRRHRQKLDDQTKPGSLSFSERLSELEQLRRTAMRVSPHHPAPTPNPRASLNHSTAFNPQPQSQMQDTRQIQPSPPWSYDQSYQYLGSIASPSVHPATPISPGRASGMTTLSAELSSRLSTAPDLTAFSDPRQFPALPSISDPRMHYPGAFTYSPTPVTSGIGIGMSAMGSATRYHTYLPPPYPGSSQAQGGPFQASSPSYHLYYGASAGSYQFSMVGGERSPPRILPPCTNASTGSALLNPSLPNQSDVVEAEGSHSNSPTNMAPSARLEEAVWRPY
T3 sequence (Q13951 whole entry, the tested form may be a part): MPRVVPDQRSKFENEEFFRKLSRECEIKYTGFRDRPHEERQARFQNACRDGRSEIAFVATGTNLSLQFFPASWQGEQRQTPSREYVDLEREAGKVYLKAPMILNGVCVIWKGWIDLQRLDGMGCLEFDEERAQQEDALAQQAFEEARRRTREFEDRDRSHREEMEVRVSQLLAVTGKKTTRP
T4 sequence (P98170 whole entry): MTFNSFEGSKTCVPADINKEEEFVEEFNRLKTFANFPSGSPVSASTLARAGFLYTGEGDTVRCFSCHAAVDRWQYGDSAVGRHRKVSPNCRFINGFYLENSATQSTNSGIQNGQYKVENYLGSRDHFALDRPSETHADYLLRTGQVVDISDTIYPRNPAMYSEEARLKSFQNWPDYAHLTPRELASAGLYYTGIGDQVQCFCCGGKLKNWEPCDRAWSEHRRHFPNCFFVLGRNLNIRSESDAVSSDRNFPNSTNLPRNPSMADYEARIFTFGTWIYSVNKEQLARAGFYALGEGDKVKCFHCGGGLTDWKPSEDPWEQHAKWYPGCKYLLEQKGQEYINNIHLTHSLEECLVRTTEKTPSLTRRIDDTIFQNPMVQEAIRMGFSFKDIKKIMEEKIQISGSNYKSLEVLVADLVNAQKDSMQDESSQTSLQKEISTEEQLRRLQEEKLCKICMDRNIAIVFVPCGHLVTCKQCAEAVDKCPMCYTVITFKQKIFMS
T1 sequence (P41145 whole entry): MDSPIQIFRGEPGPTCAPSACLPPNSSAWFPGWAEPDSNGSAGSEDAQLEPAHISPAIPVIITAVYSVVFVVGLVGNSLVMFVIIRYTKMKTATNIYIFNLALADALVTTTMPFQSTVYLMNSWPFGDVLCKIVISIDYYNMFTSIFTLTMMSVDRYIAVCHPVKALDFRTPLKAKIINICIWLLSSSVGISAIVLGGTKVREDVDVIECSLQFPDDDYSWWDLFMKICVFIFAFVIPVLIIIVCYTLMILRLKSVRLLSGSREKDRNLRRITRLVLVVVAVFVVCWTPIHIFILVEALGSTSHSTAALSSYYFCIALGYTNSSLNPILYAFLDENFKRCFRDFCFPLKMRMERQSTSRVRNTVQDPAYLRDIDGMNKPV
Sequence of Glucose-6-phosphate 1-dehydrogenase (P11413 whole entry): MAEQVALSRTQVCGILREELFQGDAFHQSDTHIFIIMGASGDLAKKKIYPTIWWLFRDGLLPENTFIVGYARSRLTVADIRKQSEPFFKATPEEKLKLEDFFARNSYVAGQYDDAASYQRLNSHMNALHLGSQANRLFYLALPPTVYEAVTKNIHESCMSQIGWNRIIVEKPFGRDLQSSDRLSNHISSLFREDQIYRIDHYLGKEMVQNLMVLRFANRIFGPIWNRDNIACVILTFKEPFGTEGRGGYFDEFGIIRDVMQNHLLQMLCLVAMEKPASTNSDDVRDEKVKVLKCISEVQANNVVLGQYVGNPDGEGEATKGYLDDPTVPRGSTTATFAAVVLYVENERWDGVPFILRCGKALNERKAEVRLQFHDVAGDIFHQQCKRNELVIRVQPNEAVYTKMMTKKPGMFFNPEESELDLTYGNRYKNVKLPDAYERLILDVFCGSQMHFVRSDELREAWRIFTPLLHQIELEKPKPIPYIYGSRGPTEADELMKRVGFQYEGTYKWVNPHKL
Sequence of Mu-type opioid receptor (P35372 whole entry): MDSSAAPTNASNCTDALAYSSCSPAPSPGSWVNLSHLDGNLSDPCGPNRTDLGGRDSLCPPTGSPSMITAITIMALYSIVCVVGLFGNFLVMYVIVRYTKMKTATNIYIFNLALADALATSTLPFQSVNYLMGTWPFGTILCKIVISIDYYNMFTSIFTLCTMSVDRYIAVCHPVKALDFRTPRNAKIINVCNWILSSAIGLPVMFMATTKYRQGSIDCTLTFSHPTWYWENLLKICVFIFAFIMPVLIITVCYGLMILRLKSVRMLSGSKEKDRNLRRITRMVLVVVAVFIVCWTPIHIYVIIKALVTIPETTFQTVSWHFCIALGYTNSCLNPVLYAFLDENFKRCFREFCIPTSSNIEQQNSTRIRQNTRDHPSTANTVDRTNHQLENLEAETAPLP

COc1ccc(N2CCN(CCCNC(=O)Cn3c(=O)c4cccn4c4cccnc43)CC2)c(OC)c1
IC50 [1]: 0.49 µM (active)
IC50 (Mu-type opioid receptor): 10.8 µM (inactive)
IC50 [2]: 2.65 µM (active)
IC50 [3]: > 32 µM (inactive)

Cc1cccn2c(=O)c(/C=C(\C#N)C(N)=O)c(N3CCN(Cc4ccc5c(c4)OCO5)CC3)nc12
IC50 (Fatty acid synthase [4]): 7.79 µM (active)
IC50 [5]: > 100 µM (inactive)
IC50 [6]: > 100 µM (inactive)
IC50 (Fatty acid synthase [7]): 9.39 µM (active)

CCOCC(=O)Nc1ccc(S(=O)(=O)N2CCC(c3nc4ccccc4[nH]3)CC2)cc1
EC50 (Integrin alpha-L): 0.246 µM (active)
EC50 (cells [8]): > 350 µM (not active)
EC50 (cells [9]): > 350 µM (not active)
EC50 (T-cell): 1.37 µM (active)

COc1cc(C(=O)O)cc(NC(=O)c2cccs2)c1OC
IC50 [10]: > 100 µM (not active)
IC50 [11]: > 100 µM (inactive)

COc1cc(OC)c(C2CC(=O)N3CN(c4ccccc4)CSC3=C2C#N)cc1OC (centres undefined)
IC50 [12]: > 80 µM (inactive)
IC50 [13]: 6.01 µM (active)
IC50 [14]: > 50 µM (inactive)
EC50 [15]: > 50 µM (active)

Cc1c(C(=O)N2CCN(c3ccc(F)cc3)CC2)sc2ncnc(N3CCN(c4ccccn4)CC3)c12
IC50 (HEK293 [16]): 4.81 µM (active)
IC50 (HEK293 [17]): 11.9 µM (active)
EC50 [18]: 4.24 µM (active)
IC50 (HEK293 [19]): 7.42 µM (inactive)
IC50 (HEK293 [20]): 16.8 µM (active)
EC50 (HEK293 [21]): 5.71 µM (active)
